Here are results for one compound from ChEMBL document CHEMBL5726336, “Arylquinazolines” (2017).

This test concerns the target DNA-dependent protein kinase catalytic subunit (Homo sapiens, UniProt P78527). Nature of the test: Biochemical Assay: The kinase assay was carried out in streptavidin-coated […] microtitre flashplates. […] The reaction was stopped using 50 ul/well of 200 mM EDTA. After incubation for a further 30 min at room temperature, the liquid was removed. Each well was washed three times with 100 ul of 0.9% saline solution. A nonspecific reaction (blank value) was determined using 10 uM of an innate kinase inhibitor. The radioactivity measurement was carried out using a TopCount. IC50 values were calculated in RS1.

DNA-dependent protein kinase catalytic subunit, sequence (P78527 whole entry): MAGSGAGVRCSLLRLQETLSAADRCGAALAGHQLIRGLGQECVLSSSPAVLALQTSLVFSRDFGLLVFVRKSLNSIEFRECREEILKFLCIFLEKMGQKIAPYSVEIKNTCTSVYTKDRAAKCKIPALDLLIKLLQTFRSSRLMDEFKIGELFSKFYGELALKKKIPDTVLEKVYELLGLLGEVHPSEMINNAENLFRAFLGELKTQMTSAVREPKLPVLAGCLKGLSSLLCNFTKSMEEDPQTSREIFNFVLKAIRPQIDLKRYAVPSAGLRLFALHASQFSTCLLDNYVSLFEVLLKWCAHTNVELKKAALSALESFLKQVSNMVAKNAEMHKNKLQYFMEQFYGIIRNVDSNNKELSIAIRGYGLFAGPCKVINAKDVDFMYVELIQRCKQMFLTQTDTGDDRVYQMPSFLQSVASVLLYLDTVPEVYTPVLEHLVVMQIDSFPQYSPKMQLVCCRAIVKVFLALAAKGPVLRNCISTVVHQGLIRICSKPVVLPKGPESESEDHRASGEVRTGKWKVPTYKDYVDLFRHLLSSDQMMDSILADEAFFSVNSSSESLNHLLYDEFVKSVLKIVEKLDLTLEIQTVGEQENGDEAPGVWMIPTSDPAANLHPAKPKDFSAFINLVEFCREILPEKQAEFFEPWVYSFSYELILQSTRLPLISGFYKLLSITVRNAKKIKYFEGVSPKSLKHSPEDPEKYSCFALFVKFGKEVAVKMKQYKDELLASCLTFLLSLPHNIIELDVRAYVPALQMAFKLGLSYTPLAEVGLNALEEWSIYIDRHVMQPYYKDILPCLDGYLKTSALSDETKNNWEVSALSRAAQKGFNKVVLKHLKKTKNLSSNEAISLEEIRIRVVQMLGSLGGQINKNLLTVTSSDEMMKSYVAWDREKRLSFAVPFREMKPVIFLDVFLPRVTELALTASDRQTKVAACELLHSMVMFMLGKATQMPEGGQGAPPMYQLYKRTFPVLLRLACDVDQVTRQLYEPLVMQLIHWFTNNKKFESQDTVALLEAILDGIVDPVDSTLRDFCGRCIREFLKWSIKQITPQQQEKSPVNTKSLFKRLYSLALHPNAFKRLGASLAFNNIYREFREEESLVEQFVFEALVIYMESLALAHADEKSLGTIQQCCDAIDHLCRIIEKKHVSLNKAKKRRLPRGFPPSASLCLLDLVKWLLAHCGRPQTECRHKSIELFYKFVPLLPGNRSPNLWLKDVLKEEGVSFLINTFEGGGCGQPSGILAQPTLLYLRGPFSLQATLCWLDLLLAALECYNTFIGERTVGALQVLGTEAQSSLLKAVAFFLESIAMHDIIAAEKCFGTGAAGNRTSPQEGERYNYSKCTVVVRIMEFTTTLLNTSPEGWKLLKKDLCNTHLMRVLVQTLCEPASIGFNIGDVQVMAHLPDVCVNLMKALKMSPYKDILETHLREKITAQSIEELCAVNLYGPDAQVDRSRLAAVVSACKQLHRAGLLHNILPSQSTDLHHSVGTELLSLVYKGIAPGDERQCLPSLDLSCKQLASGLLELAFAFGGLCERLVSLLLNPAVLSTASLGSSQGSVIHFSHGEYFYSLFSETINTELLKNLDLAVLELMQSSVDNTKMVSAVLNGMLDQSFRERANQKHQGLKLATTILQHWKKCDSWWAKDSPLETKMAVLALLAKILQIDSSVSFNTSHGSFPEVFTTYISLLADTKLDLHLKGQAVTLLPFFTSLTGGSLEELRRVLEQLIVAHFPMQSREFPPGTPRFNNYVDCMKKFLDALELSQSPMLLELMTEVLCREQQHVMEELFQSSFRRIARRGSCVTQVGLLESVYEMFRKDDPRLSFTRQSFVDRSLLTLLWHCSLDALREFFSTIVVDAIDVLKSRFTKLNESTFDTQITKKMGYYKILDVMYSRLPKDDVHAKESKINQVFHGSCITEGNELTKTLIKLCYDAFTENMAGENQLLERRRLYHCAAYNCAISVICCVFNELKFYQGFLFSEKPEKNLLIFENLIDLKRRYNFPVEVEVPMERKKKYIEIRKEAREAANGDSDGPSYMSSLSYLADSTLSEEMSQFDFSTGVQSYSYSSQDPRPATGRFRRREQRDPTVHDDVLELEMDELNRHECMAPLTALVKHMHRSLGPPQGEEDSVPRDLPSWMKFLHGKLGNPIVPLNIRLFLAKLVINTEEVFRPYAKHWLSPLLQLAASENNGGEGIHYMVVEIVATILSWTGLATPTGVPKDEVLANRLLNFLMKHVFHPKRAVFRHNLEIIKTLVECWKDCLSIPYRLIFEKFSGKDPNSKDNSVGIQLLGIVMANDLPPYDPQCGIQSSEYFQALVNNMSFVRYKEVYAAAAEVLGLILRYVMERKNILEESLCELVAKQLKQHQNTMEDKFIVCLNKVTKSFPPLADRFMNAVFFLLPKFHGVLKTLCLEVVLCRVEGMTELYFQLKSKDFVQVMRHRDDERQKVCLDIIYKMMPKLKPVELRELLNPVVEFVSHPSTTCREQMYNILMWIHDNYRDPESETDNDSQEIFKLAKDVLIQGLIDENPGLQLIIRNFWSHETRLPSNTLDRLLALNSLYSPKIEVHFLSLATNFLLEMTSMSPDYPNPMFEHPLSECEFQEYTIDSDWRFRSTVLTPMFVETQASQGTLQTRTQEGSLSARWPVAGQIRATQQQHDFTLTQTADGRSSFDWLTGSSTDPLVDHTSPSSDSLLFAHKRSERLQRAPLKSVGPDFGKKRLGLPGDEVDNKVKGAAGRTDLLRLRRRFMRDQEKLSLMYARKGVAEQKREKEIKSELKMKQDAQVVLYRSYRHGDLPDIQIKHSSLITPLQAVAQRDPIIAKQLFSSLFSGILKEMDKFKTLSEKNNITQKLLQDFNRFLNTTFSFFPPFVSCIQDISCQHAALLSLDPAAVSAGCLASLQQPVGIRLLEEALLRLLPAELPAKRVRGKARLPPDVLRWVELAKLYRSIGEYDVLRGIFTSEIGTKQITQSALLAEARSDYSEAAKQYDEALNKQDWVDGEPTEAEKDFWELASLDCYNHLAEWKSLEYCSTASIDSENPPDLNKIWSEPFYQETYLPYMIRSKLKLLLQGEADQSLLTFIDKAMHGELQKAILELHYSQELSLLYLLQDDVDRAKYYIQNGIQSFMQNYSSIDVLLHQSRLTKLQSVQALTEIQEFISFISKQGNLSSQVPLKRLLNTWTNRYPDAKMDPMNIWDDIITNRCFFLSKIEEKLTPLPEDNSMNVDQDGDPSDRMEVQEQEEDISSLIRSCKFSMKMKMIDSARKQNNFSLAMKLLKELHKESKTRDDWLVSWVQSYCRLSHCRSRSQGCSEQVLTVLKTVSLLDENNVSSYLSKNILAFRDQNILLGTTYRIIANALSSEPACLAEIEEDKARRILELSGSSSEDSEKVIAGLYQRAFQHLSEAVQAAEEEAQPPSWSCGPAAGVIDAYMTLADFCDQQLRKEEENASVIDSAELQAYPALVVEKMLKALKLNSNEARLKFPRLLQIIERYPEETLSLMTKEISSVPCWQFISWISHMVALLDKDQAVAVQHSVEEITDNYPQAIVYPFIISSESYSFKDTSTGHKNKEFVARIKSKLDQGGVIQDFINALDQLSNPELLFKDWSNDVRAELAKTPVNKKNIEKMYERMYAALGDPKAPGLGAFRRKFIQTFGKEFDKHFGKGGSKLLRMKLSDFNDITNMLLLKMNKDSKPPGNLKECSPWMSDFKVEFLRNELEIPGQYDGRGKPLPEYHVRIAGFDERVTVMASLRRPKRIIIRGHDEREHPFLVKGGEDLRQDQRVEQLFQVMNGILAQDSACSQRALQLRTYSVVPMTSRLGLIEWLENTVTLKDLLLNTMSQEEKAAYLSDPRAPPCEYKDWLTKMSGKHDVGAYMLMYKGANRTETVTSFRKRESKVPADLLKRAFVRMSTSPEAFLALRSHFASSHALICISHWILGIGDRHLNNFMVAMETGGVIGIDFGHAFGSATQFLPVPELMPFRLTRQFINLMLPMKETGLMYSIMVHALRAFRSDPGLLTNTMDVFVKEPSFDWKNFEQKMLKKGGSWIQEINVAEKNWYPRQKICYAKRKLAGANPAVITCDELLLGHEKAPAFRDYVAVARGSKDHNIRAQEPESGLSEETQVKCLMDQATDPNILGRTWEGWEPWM

As to `CCNCc1csc(C(O)c2cc(-c3ncnc4cc(N5CCOCC5)ccc34)c(F)cc2Cl)n1` (stereo unspecified), the IC50 (commonly the concentration needed to halve the response being measured) was 0.007 to 0.03 µM.
